For this experiment, the target named is human NaV 1.7 (Homo sapiens, UniProt Q15858). In words: E-VIPR optical membrane potential assay with electrical stimulation. It is filed as cell-based. Conditions: sodium channel inhibition; read-out: Binned Activity Data (IC50). The procedure, abridged: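 Membrane-potential read-out: background-subtracted 460 nm/580 nm ratio during a 9 s current-controlled stimulus, 400 Hz scan. Before stimulation, NaV1.7-HEK cells carried coumarin/oxonol dye and compound (final DMSO 0.625%) for 20–35 min at room temperature; tetracaine 125 μM served as positive control.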

Usually IC50 stands for the point on the concentration scale where inhibition reaches its midpoint.

Chain of human NaV 1.7 (Q15858 whole entry): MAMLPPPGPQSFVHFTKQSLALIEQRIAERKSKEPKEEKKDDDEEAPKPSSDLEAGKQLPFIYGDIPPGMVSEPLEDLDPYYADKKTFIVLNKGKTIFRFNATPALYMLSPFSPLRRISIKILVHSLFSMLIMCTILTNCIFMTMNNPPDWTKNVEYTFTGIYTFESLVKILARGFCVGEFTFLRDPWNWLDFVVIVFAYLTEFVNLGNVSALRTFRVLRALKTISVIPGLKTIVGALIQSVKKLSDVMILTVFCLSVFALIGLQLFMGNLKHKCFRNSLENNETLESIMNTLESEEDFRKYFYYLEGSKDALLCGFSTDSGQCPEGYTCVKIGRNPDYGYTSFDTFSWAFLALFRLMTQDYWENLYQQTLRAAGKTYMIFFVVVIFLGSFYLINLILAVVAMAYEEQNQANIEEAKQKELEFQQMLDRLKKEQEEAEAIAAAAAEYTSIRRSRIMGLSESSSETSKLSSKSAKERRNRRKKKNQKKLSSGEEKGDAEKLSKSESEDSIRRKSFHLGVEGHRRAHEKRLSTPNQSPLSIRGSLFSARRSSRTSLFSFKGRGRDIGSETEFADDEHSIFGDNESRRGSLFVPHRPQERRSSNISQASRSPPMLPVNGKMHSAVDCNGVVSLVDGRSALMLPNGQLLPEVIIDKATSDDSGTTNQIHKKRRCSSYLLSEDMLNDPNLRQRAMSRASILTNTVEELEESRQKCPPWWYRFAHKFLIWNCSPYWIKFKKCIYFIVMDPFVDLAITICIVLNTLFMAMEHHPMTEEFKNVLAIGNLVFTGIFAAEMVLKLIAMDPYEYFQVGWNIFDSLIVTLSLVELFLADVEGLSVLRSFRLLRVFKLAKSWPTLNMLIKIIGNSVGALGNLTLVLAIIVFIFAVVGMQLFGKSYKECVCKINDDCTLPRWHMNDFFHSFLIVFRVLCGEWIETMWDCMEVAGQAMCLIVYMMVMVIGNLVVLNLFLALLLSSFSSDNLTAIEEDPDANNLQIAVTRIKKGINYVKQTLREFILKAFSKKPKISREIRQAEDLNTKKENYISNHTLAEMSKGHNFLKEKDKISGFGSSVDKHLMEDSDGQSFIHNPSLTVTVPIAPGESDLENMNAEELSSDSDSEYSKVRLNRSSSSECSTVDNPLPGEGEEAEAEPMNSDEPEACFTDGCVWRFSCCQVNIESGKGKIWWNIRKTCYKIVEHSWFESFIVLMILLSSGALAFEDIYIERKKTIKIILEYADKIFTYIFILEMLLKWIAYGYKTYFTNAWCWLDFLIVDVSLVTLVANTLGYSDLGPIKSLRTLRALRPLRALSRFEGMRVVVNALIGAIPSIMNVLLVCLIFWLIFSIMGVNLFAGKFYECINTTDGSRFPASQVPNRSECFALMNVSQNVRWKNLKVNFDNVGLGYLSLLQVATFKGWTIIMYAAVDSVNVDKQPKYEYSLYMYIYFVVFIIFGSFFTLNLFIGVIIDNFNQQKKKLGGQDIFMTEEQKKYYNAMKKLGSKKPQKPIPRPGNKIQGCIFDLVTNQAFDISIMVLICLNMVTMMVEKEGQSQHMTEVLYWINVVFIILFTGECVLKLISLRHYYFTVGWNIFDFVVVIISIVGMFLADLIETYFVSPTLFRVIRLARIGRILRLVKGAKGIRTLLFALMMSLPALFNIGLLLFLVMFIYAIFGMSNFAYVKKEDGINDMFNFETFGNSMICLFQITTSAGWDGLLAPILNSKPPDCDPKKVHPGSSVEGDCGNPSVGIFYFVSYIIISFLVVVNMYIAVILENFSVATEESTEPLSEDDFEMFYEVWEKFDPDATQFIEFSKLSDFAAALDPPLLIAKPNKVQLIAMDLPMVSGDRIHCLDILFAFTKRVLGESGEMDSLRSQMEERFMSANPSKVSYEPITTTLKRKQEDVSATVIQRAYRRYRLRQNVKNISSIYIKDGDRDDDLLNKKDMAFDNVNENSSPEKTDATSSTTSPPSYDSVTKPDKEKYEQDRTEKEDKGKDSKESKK

With `CCn1ncc2c1-c1ccccc1OC21CCN(C(=O)c2ccc(OC(C)C)c(C)c2)CC1` [Compound 410], the IC50 is at most 2000 nM.

On to `COc1cc(C(=O)N2CCC3(CC2)Oc2ccccc2-n2c(C#N)ccc23)ccc1O` [Compound 206], for which the 50% inhibitory concentration (IC50) was at most 2000 nM.

With `COc1cc(C(=O)N2CCC3(CC2)Oc2ccccc2-n2c3ccc2S(C)(=O)=O)ccc1OC(C)C` [Compound 768], the IC50 was at most 2000 nM. On to `CCc1ccc(C(=O)N2CCC3(CC2)Oc2ccccc2-n2c(C#N)ccc23)cc1OC` [Compound 839], for which the concentration for half-maximal inhibition (IC50) is at most 2000 nM. On to `O=C(c1ccc(OCCO)cc1)N1CCC2(CC1)Oc1ccccc1-n1c(C(F)(F)F)ccc12` [Compound 846], for which the IC50 is at most 2000 nM. Then `O=C(c1ccccc1OC(F)F)N1CCC2(CC1)Oc1ccccc1-c1c2cnn1C(F)F` [Compound 889], with at most 2000 nM. The same measure for `O=C(c1ccc(S(=O)(=O)CC2CCOC2)cn1)N1CCC2(CC1)Oc1ccccc1-n1c(C(F)(F)F)ccc12` (centres unmarked) [Compound 877]: at most 2000 nM. For the molecule `CCNS(=O)(=O)c1ccc(C(=O)N2CCC3(CC2)Oc2ccccc2-c2c3cnn2C)cc1` [Compound 521], the IC50 was at most 2000 nM.

Regarding `O=C(c1cc(Cl)cc(C(F)(F)F)c1)N1CCC2(CC1)Oc1cc(Cl)ccc1-n1cccc12` [Compound 57], the IC50 is at most 2000 nM.

In the case of `CCc1ccc(C(=O)N2CCC3(CC2)Oc2cc(CO)ccc2-n2cccc23)cc1OC` [Compound 848], the IC50 is at most 2000 nM. Regarding `CCc1ccc(C(=O)N2CCC3(CC2)Oc2cc(C(=O)NC)ccc2-n2cccc23)cc1OC` [Compound 713], the IC50 was at most 2000 nM. For `Cc1ccc(C(=O)N2CCC3(CC2)Oc2cc(Cl)ccc2-n2cccc23)cc1C` [Compound 105], the concentration for half-maximal inhibition (IC50) was at most 2000 nM.

As to `COc1cc(Cl)cc(C(=O)N2CCC3(CC2)Oc2cc(Cl)ccc2-n2cccc23)c1` [Compound 29], the half-inhibitory concentration (IC50) is at most 2000 nM. Consider `CN(C)CCOc1ccc(C(=O)N2CCC3(CC2)Oc2ccccc2-n2cccc23)cc1C(F)(F)F` [Compound 333], for which the IC50 was at most 2000 nM. The same measure for `Cc1cc(C(=O)N2CCC3(CC2)Oc2ncccc2-n2nccc23)ccc1OC(C)C` [Compound 255]: at most 2000 nM. Regarding `Cn1cccc(C(=O)N2CCC3(CC2)Oc2cc(Cl)ccc2-n2cccc23)c1=O` [Compound 147], the IC50 was at most 2000 nM. The same measure for `Cn1cc2c(n1)-c1ccccc1OC21CCN(C(=O)c2ccc(S(=O)(=O)NC3CC3)cc2)CC1` [Compound 767]: at most 2000 nM; for `COc1ccccc1C(=O)N1CCC2(CC1)Oc1ccc(F)cc1-c1c2cnn1C` [Compound 383]: at most 2000 nM; for `Cc1cc(C(=O)N2CCC3(CC2)Oc2cccnc2-c2c3cnn2C)ccc1OC(C)C` [Compound 271]: over 5000 nM. Then `CC(C)(O)c1ccc(C(=O)N2CCC3(CC2)Oc2ccccc2-n2c(C(F)(F)F)ccc23)cn1` [Compound 455], with over 5000 nM. As to `CC(C)S(=O)(=O)c1ccc(C(=O)N2CCC3(CC2)Oc2ccccc2-n2c(C(F)(F)F)ccc23)nc1` [Compound 881], the IC50 was at most 2000 nM. Turning to `Cn1cc2c(n1)-c1ccccc1OC21CCN(C(=O)c2ccc3nc(Cl)sc3c2)CC1` [Compound 843], the IC50 was 2000 to 5000 nM. As for `Nc1nc2ccc(C(=O)N3CCC4(CC3)Oc3ccccc3-n3c(C(F)(F)F)ccc34)cc2s1` [Compound 8], the IC50 lay in the range of 2000 to 5000 nM. For the molecule `COc1cc(C(=O)N2CCC3(CC2)Oc2ccccc2-n2cccc23)ccc1OC(C)(C)C` [Compound 727], the half-inhibitory concentration (IC50) was at most 2000 nM.

Regarding `COc1cc(C(=O)N2CCC3(CC2)Oc2cc(Cl)ccc2-n2cccc23)ccc1OCCS(C)(=O)=O` [Compound 851], the IC50 was at most 2000 nM. Consider `CC(C)(C)c1ccc(C(=O)N2CCC3(CC2)Oc2ccccc2-n2cccc23)cc1C#N` [Compound 419], for which the IC50 was at most 2000 nM. The same measure for `COc1ccc2c(c1)OC1(CCN(C(=O)c3ccc(OC(C)C)c(C)c3)CC1)c1cnn(C)c1-2` [Compound 289]: at most 2000 nM; for `COc1cc(F)c(F)cc1C(=O)N1CCC2(CC1)Oc1ccccc1-c1c2cnn1C` [Compound 127]: over 5000 nM. Take `COc1cc(C(=O)N2CCC3(CC2)Oc2ccccc2-c2nn(C)cc23)cc(OC)c1OC` [Compound 747]: the concentration for half-maximal inhibition (IC50) was over 5000 nM.

For `CC(C)Oc1ccc(C(=O)N2CCC3(CC2)Oc2ccccc2-c2c3cnn2C)c(C#N)c1` [Compound 40], the half-maximal inhibitory concentration (IC50) is 2000 to 5000 nM. With `COc1ccc(F)cc1C(=O)N1CCC2(CC1)Oc1ccccc1-c1c2cnn1C` [Compound 476], the IC50 was at most 2000 nM.

Consider `Cc1cc(C(=O)N2CCC3(CC2)Oc2ccccc2-n2ccc(C)c23)ccc1OC(C)C` [Compound 315], for which the half-inhibitory concentration (IC50) is at most 2000 nM. Then `Cn1cc2c(n1)-c1ccccc1OC21CCN(C(=O)c2ccccc2OC(F)F)CC1` [Compound 740], with at most 2000 nM; and `CC(=O)c1ccc2n1-c1ccccc1OC21CCN(C(=O)c2ccc(S(C)(=O)=O)c(C)c2)CC1` [Compound 357], with at most 2000 nM; and `O=C(c1ccc(S(=O)(=O)CCO)cc1)N1CCC2(CC1)Oc1ccccc1-n1c(C(F)(F)F)ccc12` [Compound 794], with over 5000 nM. Take `COc1cc(C(=O)N2CCC3(CC2)Oc2ccccc2-n2cccc23)ccc1OC1CCCC1` [Compound 342]: the IC50 was at most 2000 nM. With `O=C(c1ccc(O[C@@H]2CCOC2)c(C(F)(F)F)c1)N1CCC2(CC1)Oc1ccccc1-n1cccc12` [Compound 170], the half-maximal inhibitory concentration (IC50) was at most 2000 nM. `N#Cc1ccc2n1-c1ccccc1OC21CCN(C(=O)c2ccccc2OC(F)F)CC1` [Compound 285]: the 50% inhibitory concentration (IC50) was at most 2000 nM.

Turning to `Cn1ncc2c1-c1ccccc1OC21CCN(C(=O)c2nccc3ccccc23)CC1` [Compound 657], the half-inhibitory concentration (IC50) was over 5000 nM. Regarding `COc1cc(C(=O)N2CCC3(CC2)Oc2ccccc2-c2[nH]ncc23)ccc1OC(C)(C)C` [Compound 553], the 50% inhibitory concentration (IC50) is 2000 to 5000 nM. In the case of `COc1cc(C(=O)N2CCC3(CC2)Oc2cc(Cl)ccc2-n2cccc23)ccc1C(C)(C)OC` [Compound 497], the IC50 was at most 2000 nM. Take `COc1cc(C(=O)N2CCC3(CC2)Oc2ccccc2-c2c3cnn2C)ccc1C(C)(C)O` [Compound 537]: the 50% inhibitory concentration (IC50) is at most 2000 nM. Then `Cn1ncc2c1-c1ccccc1OC21CCN(C(=O)c2ccc(N3CCCCC3)nc2)CC1` [Compound 104], with over 5000 nM.

In the case of `CC(C)CS(=O)(=O)c1ccc(C(=O)N2CCC3(CC2)Oc2ccccc2-n2c(C#N)ccc23)cc1` [Compound 436], the IC50 was at most 2000 nM. For `COc1ccc(C(=O)N2CCC3(CC2)Oc2ccccc2-n2cc(C)cc23)cc1C(F)(F)F` [Compound 161], the 50% inhibitory concentration (IC50) is at most 2000 nM. In the case of `Cn1ccc(C(=O)N2CCC3(CC2)Oc2cc(Cl)ccc2-n2c(C(F)(F)F)ccc23)cc1=O` [Compound 250], the IC50 lay within 2000 to 5000 nM. Regarding `Cc1cc(C(=O)N2CCC3(CC2)Oc2ccccc2-c2c3cnn2C)ccc1S(=O)(=O)C(C)(C)C` [Compound 67], the IC50 is at most 2000 nM. In the case of `COc1cc(C(=O)N2CCC3(CC2)Oc2ccccc2-n2cccc23)ccc1OCCC(C)C` [Compound 602], the concentration for half-maximal inhibition (IC50) was at most 2000 nM. For the molecule `COc1cc(C(=O)N2CCC3(CC2)Oc2ccccc2-n2cccc23)ccc1OCCCO` [Compound 466], the IC50 was at most 2000 nM. The same measure for `CCOc1ncccc1C(=O)N1CCC2(CC1)Oc1ccccc1-n1c(C(F)(F)F)ccc12` [Compound 130]: at most 2000 nM; for `Cn1ncc2c1-c1ccccc1OC21CCN(C(=O)c2ccc(C(C)(C)O)cc2)CC1` [Compound 506]: at most 2000 nM. Then `COc1cc(C(=O)N2CCC3(CC2)Oc2ccccc2-n2cccc23)ccc1O[C@@H]1CCC[C@H]1O` [Compound 437], with at most 2000 nM; and `COc1cc(C(=O)N2CCC3(CC2)Oc2ccccc2-c2c3cnn2C)ccc1OC(C)C` [Compound 256], with at most 2000 nM; and `C[C@@](O)(CO)c1ccc(C(=O)N2CCC3(CC2)Oc2ccccc2-n2c(C#N)ccc23)cc1` [Compound 406], with at most 2000 nM. The same measure for `COc1ccc(C(=O)N2CCC3(CC2)Oc2ccccc2-n2c(C(F)(F)F)ccc23)nc1C` [Compound 872]: at most 2000 nM; for `CC(C)S(=O)(=O)c1ccc(C(=O)N2CCC3(CC2)Oc2ccccc2-c2c3cnn2C)cc1` [Compound 613]: at most 2000 nM.

As to `O=C(c1ccc(S(=O)(=O)C2CC2)cc1)N1CCC2(CC1)Oc1ccccc1-n1c(C(F)(F)F)ccc12` [Compound 270], the concentration for half-maximal inhibition (IC50) was at most 2000 nM. On to `CC(C)C(O)c1ccc(C(=O)N2CCC3(CC2)Oc2ccccc2-c2nn(C)cc23)cc1` (centres unmarked) [Compound 4], for which the IC50 was at most 2000 nM. On to `CCn1ncc2c1-c1ccccc1OC21CCN(C(=O)c2ccccc2OC(F)F)CC1` [Compound 167], for which the IC50 is at most 2000 nM.

For `CC(C)S(=O)(=O)c1ccc(C(=O)N2CCC3(CC2)Oc2cc(Cl)ccc2-n2c(C#N)ccc23)cc1` [Compound 679], the half-maximal inhibitory concentration (IC50) lay within 2000 to 5000 nM.

Regarding `COc1cc(C(C)(C)O)ccc1C(=O)N1CCC2(CC1)Oc1ccccc1-n1c(C#N)ccc12` [Compound 622], the half-inhibitory concentration (IC50) was at most 2000 nM.

Take `CC(C)Oc1ccccc1C(=O)N1CCC2(CC1)Oc1ccccc1-c1c2cnn1C` [Compound 430]: the 50% inhibitory concentration (IC50) is at most 2000 nM.

`O=C(c1ccc2ncsc2c1)N1CCC2(CC1)Oc1ccccc1-n1c(C(F)(F)F)ccc12` [Compound 15]: the 50% inhibitory concentration (IC50) was over 5000 nM. Regarding `COCCOc1ccc(C(=O)N2CCC3(CC2)Oc2ccccc2-c2c3cnn2CC(F)(F)F)cc1OC` [Compound 391], the 50% inhibitory concentration (IC50) fell in the range of 2000 to 5000 nM. Then `COCCOc1cc(F)c(C(=O)N2CCC3(CC2)Oc2cc(F)ccc2-n2cccc23)cc1OC` [Compound 312], with at most 2000 nM; and `CCCOc1ccc(C(=O)N2CCC3(CC2)Oc2ccccc2-c2c3cnn2C)cc1OC` [Compound 190], with at most 2000 nM; and `CCc1ccc(C(=O)N2CCC3(CC2)Oc2ccccc2-n2cc(C)cc23)cc1OC` [Compound 395], with at most 2000 nM. As for `Cn1ncc2c1-c1ccccc1OC21CCN(C(=O)c2cccc3c2CC(C)(C)O3)CC1` [Compound 860], the IC50 is at most 2000 nM.

(Values after patent publication US9365588B2, “Benzoxazines as modulators of ion channels” (Vertex Pharmaceuticals Incorporated, priority 2011, dated 2016).)
